One data set has as its system Apis mellifera. Conditions: acute; oral; unspecified; mortality.
Another data set relates to Bibionidae. Conditions: chronic/long-term; duration: 28 days; body weight.
A further data set relates to Cyprinus carpio. Conditions: acute; duration: 96 hours; mortality.
The next data set has as its system Daphnia magna. Conditions: chronic/long-term; duration: 21 days; body weight.
The next data set deals with Oncorhynchus mykiss. Conditions: acute; duration: 96 hours; mortality.
In another data set the test system is Pimephales promelas. Conditions: chronic/long-term; duration: 28 days; body weight.
The next data set deals with Aphidius rhopalosiphi. Nature of the data set: LR50; higher = less toxic. Conditions: acute; duration: 48 hours; mortality.
A further data set deals with Typhlodromus pyri. The data set is described as follows: LR50; higher = less toxic. Conditions: acute; duration: 7 days; mortality.

Converted amounts (≈) assume the structure as drawn.

A word on the NOAEL: it is the highest tested level that showed no adverse finding. For the compound `COc1ccccc1N1CCS/C1=C(/C#N)Sc1cc(C(F)(F)F)ccc1F` [Flutianil], the LD50 is > 100 µg/piece in the data set with Apis mellifera; > 2250 mg/kg in the data set on Colinus virginianus (acute, oral, mortality); > 2000 mg/kg in the data set on Rattus norvegicus (acute, oral, mortality). In addition, the NOEC amounted to 396 mg/kg in the data set on Bibionidae; 0.00697 mg/L with Daphnia magna; 0.000781 mg/L in the data set on Pimephales promelas; 6.25 mg/kg with Tagia sp. (chronic/long-term, duration: 8 weeks, reproduction). For the same compound, the NOAEL came out at 186 mg/kg-day in the data set with Colinus virginianus (reproduction developmental); 81.9 mg/kg-day with Rattus norvegicus (chronic, duration: 2 years, histopathology: nonneoplastic); 100 mg/kg-day with Rattus norvegicus (developmental, development); 123 mg/kg-day with Rattus norvegicus (reproduction developmental, organ weight). The LC50 with Cyprinus carpio was > 0.87 µg/mL; in the data set with Oncorhynchus mykiss, 0.051 µg/mL (≈ 0.12 µM); in the data set on Tagia sp. (acute, duration: 14 days, mortality) it was > 500 mg/kg. The LR50 with Aphidius rhopalosiphi and in the data set with Typhlodromus pyri was > 480 g/ha each time.
